Laboratory results taken from US20180186815A1, “PHARMACEUTICAL COMPOSITIONS, METHODS FOR THEIR PREPARATION AND THEIR USE IN THE TREATMENT OF CANCER” (Urifer Ltd., priority 2016, published 2018).
Like-named read-outs stand apart in the source and are kept apart here.

Assays:
Format in all cases: cell-based
[1] = system: colon cancer cell line HT29; test: Growth profile / viability of HT29 colon cancer cells, XTT test; conditions: Homo sapiens, HT-29, 96 h, Control DMSO = 100%, read-out: percentage of viable cells, HT29
Experimental: (§1) The effect of the compounds Z522-XXX on the growth profile of cancer cells which express Fer was tested. The cells that were tested were: the colon cancer cell lines HT29 and HCT 116, RKO. The effect of each of the compounds on FS cells, a non malingnant fibroblastic cell line, was also studied.
(§2) Generally, cells were seeded in 96 wells microplates and were left to grow untreated overnight. Each of the compounds was dissolved in DMSO and was then added to each well in a final concentration of 5 μM. The concentration of DMSO in each well was 0.4% v/v. Untreated cells and cells subjected to 0.4% DMSO alone, served as controls. The percentage of viable cells in each well was determined 96 hours after compounds addition, using the XTT test (Berridge, M. V. et al, 2005).

[2] = system: colon cancer cell line RKO; test: Growth profile / viability of RKO colon cancer cells, XTT test; conditions: 96 h, Control DMSO = 100%, read-out: percentage of viable cells, RKO
Experimental: as §1, §2

[3] = system: colon cancer cell line HCT 116; test: Growth profile / viability of HCT116 colon cancer cells, XTT test; conditions: Homo sapiens, HCT-116, 96 h, Control DMSO = 100%, read-out: percentage of viable cells, HCT116
Experimental: as §1, §2

[4] = Viability of FS non malignant fibroblastic cells, XTT test; conditions: FS cells (non-malignant fibroblastic cell line), Control DMSO = 100%, read-out: percentage of viable cells, FS
Experimental: as §1, §2

Row | Structure (SMILES) | viability at 5 µM ([1]; first HT29 column) [%] | viability at 5 µM ([1]; second HT29 column) [%] | viability at 5 µM ([2]; first RKO column) [%] | viability at 5 µM ([2]; second RKO column) [%] | viability at 5 µM ([3]; first HCT116 column) [%] | viability at 5 µM ([3]; second HCT116 column) [%] | viability at 96 h, 5 µM ([4]; first FS column) [%] | viability at 96 h, 5 µM ([4]; second FS column) [%]
1 | Cc1c(-c2ccc(N(C)CCO)cc2)nc2sc(N3CCC(C(=O)N4CCN(C)CC4)CC3)nn12 [Compound Z522-0197, 2-{methyl[4-(5-methyl-2-{4-[(4-methylpiperazin-1-yl)carbonyl]-piperidin-1-yl}-imidazo[2,1-b]-[1,3,4]thiadiazol-6-yl)phenyl]-amino}ethanol] | 102 | 110 | 111 | 117 | 95 | 108 | 113 | 104
2 | O=C(C1CCN(c2nn3cc(-c4ccc(Cl)cc4)nc3s2)CC1)N1CCN(c2ccccn2)CC1 [Compound Z522-0200, 6-(4-chlorophenyl)-2-{4-[(4-pyridin-2-ylpiperazin-1-yl)carbonyl]piperidin-1-yl}imidazo[2,1-b][1,3,4]thiadiazole] | 92 | 98 | 81 | 78 | 94 | 88 | 95 | 103
3 | CN(CCc1ccccn1)C(=O)C1CCN(c2nn3cc(-c4ccc(Cl)cc4)nc3s2)CC1 [Compound Z522-0203, 1-[6-(4-chlorophenyl)imidazo[2,1-b][1,3,4]thiadiazol-2-yl]-N-methyl-N-(2-pyridin-2-ylethyl) piperidine-4-carboxamide] | 74 | 88 | 48 | 48 | 75 | 75 | 90 | 94
4 | O=C(C1CCN(c2nn3cc(-c4ccc(Cl)cc4)nc3s2)CC1)N1CCN(c2ncccn2)CC1 [Compound Z522-0204, 6-(4-chlorophenyl)-2-{4-[(4-pyrimidin-2-ylpiperazin-1-yl)carbonyl]piperidin-1-yl}imidazo[2,1-b][1,3,4]thiadiazole] | 105 | 97 | 92 | 76 | 97 | 110 | 96 | 93
5 | CN(CCc1ccncc1)C(=O)C1CCN(c2nn3cc(-c4ccc(Cl)cc4)nc3s2)CC1 [Compound Z522-0205, 1-[6-(4-chlorophenyl)imidazo[2,1-b][1,3,4]thiadiazol-2-yl]-N-methyl-N-(2-pyridin-4-ylethyl) piperidine-4-carboxamide] | 88 | 85 | 52 | 62 | 78 | 71 | 88 | 111
6 | Cc1ccc(C)n1CCN1CCN(C(=O)C2CCN(c3nn4cc(-c5ccc(Cl)cc5)nc4s3)CC2)CC1 [Compound Z522-0209, 6-(4-chlorophenyl)-2-[4-({4-[2-(2,5-dimethyl-1H-pyrrol-1-yl)ethyl]piperazin-1-yl}carbonyl)piperidin-1-yl]imidazo[2,1-b][1,3,4]thiadiazole] | 25 | 30 | 52 | 55 | 71 | 59 | 89 | 96
7 | O=C(C1CCN(c2nn3cc(-c4ccc(Cl)cc4)nc3s2)CC1)N1CCCCC1CN1CCOCC1 (centres unmarked) [Compound Z522-0213, 6-(4-chlorophenyl)-2-(4-{[2-(morpholin-4-ylmethyl)piperidin-1-yl]carbonyl}piperidin-1-yl)imidazo[2,1-b][1,3,4] thiadiazole] | 87 | 99 | 18 | 13 | 84 | 88 | 87 | 98
8 | O=C(C1CCN(c2nn3cc(-c4ccc(Cl)cc4)nc3s2)CC1)N1CCCC(CN2CCOCC2)C1 (centres unmarked) [Compound Z522-0214, 6-(4-chlorophenyl)-2-(4-{[3-(morpholin-4-ylmethyl)piperidin-1-yl]carbonyl}piperidin-1-yl)imidazo[2,1-b][1,3,4]thiadiazole] | 53 | 57 | 24 | 23 | 70 | 71 | 104 | 90
9 | CN1CCN(C(=O)CN2CCN(C(=O)C3CCN(c4nn5cc(-c6ccc(Cl)cc6)nc5s4)CC3)CC2)CC1 [Compound Z522-0215, 6-(4-chlorophenyl)-2-[4-({4-[2-(4-methylpiperazin-1-yl)-2-oxoethyl]piperazin-1-yl}carbonyl)piperidin-1-yl]imidazo[2,1-b][1,3,4]thiadiazole] | 14 | 11 | 6 | 10 | 63 | 58 | 85 | 109
10 | CN(C)CCNC(=O)CN(C)C(=O)C1CCN(c2nn3cc(-c4ccc(Cl)cc4)nc3s2)CC1 [Compound Z522-0216, 1-[6-(4-chlorophenyl)imidazo[2,1-b][1,3,4]thiadiazol-2-yl]-N^4-(2-[2-(dimethylamino)ethyl]amino-2-oxoethyl)-N^4-methyl-4-piperidinecarboxamide] | 10 | 11 | 0 | 2 | 68 | 86 | 86 | 93
11 | O=C(C1CCN(c2nn3cc(-c4ccc(Cl)cc4)nc3s2)CC1)N1CCCN(c2ncccn2)CC1 [Compound Z522-0219, 6-(4-chlorophenyl)-2-{4-[(4-pyrimidin-2-yl-1,4-diazepan-1-yl)carbonyl]piperidin-1-yl}imidazo[2,1-b][1,3,4]thiadiazole] | 91 | 95 | 48 | 45 | 75 | 67 | 89 | 94
12 | CC(C)c1ccc(-c2cn3nc(N4CCC(C(=O)N5CCN(c6ccccn6)CC5)CC4)sc3n2)cc1 [Compound Z522-0223, 6-(4-isopropyl-phenyl)-2-{4-[(4-pyridin-2-ylpiperazin-1-yl)carbonyl]piperidin-1-yl}imidazo[2,1-b][1,3,4]thiadiazole] | 83 | 89 | 64 | 81 | 75 | 80 | 87 | 92
13 | CC(C)c1ccc(-c2cn3nc(N4CCC(C(=O)N(C)CCc5ccccn5)CC4)sc3n2)cc1 [Compound Z522-0226, 1-[6-(4-isopropylphenyl)imidazo[2,1-b][1,3,4]thiadiazol-2-yl]-N-methyl-N-(2-pyridin-2-ylethyl)piperidine-4-carboxamide] | 101 | 92 | 72 | 64 | 80 | 80 | 91 | 99
